Laboratory results: patent publication US10660877B2 (BRISTOL-MYERS SQUIBB COMPANY, priority 2016, dated 2020)
Where two headings read alike, the source gives them in different places.

Tests used:
human TLR7 = human TLR7 (Homo sapiens (Human), UniProt Q9NYK1); assay: TLR7 inhibition reporter assay (HEK-Blue cells, SEAP reporter, gardiquimod stimulation); assay type: cell-based
human TLR9 = human TLR9 (Homo sapiens (Human), UniProt Q9NR96); assay: TLR9 inhibition reporter assay (HEK-Blue cells, SEAP reporter, ODN2006 stimulation);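 note: compounds tested over 0.05 nM to 50 µM, 22 h incubation, inhibition taken as SEAP signal drop from agonist plus DMSO wells toward a known inhibitor control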
Sequence of human TLR9 (Q9NR96 26-1032): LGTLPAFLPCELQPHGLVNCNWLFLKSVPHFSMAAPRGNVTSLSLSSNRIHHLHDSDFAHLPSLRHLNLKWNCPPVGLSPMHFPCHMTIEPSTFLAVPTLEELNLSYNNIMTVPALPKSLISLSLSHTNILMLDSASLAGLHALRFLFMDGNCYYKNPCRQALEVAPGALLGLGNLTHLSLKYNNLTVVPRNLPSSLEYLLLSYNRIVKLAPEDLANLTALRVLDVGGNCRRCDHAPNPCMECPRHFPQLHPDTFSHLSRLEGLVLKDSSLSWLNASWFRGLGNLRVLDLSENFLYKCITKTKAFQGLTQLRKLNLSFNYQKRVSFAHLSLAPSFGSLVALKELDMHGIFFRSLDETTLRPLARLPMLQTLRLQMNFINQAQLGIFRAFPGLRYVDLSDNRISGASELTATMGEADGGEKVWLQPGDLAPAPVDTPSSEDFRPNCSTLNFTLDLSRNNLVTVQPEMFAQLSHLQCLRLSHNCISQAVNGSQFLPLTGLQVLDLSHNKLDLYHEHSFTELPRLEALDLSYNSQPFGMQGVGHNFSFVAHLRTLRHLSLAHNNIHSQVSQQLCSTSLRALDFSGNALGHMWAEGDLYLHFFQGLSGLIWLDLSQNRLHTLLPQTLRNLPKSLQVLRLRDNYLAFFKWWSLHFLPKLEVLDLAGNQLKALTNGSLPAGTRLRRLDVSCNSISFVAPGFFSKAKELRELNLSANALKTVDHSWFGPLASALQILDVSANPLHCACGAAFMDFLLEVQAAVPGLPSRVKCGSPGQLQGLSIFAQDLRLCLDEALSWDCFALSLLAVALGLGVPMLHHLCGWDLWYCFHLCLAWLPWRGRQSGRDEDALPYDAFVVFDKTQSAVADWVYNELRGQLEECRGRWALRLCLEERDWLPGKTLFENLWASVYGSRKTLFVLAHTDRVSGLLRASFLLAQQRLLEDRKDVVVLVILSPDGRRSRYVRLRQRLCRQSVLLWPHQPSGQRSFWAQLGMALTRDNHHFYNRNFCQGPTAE

human TLR8 = human TLR8 (Homo sapiens (Human), UniProt Q9NR97); assay: TLR8 inhibition reporter assay (HEK-Blue cells, SEAP reporter, R848 stimulation);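 note: compounds tested from 0.05 nM to 50 µM, 22 h at 37 °C, SEAP measured with HEK-Blue Detection, inhibition relative to agonist plus DMSO versus a known inhibitor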
Sequence of human TLR8 (Q9NR97 27-1041): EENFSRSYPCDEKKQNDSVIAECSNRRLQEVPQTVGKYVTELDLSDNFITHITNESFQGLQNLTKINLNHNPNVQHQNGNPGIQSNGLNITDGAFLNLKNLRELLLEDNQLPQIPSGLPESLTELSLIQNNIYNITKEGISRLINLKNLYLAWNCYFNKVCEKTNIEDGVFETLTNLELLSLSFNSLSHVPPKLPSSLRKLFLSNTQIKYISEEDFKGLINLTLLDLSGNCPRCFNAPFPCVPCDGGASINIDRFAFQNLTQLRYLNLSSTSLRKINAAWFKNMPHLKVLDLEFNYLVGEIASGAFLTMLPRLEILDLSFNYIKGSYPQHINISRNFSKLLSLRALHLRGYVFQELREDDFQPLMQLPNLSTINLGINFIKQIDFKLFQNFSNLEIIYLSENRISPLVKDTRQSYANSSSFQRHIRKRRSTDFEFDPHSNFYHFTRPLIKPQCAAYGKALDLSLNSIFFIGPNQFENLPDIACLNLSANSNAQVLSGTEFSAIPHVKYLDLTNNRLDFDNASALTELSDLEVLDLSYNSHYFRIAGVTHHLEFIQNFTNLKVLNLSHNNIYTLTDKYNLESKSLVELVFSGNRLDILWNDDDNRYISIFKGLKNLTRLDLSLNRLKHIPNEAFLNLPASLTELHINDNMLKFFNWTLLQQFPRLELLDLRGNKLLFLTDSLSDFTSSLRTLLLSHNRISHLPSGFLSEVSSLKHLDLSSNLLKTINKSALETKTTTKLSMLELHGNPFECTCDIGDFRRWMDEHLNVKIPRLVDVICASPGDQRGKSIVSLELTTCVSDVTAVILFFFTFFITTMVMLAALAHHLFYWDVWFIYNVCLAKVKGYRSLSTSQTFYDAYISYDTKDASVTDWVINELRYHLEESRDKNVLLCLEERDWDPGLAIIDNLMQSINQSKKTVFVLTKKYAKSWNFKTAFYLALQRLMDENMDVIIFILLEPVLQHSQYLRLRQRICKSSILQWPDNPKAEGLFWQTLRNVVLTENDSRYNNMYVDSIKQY

[1] = HEK-Blue cells overexpressing human TLR7, gardiquimod 7.5 μM
[2] = read-out: TLR9 IC50, HEK-Blue cells overexpressing human TLR9, ODN2006 5 nM
[3] = read-out: TLR8 IC50, HEK-Blue cells overexpressing human TLR8, R848 15.9 μM
[4] = HEK-Blue cells, gardiquimod 7.5 μM
[5] = read-out: TLR9 IC50, HEK-Blue cells, ODN2006 5 nM
[6] = read-out: TLR8 IC50, HEK-Blue cells, R848 15.9 μM

Sequence of human TLR7 (Q9NYK1 27-1049): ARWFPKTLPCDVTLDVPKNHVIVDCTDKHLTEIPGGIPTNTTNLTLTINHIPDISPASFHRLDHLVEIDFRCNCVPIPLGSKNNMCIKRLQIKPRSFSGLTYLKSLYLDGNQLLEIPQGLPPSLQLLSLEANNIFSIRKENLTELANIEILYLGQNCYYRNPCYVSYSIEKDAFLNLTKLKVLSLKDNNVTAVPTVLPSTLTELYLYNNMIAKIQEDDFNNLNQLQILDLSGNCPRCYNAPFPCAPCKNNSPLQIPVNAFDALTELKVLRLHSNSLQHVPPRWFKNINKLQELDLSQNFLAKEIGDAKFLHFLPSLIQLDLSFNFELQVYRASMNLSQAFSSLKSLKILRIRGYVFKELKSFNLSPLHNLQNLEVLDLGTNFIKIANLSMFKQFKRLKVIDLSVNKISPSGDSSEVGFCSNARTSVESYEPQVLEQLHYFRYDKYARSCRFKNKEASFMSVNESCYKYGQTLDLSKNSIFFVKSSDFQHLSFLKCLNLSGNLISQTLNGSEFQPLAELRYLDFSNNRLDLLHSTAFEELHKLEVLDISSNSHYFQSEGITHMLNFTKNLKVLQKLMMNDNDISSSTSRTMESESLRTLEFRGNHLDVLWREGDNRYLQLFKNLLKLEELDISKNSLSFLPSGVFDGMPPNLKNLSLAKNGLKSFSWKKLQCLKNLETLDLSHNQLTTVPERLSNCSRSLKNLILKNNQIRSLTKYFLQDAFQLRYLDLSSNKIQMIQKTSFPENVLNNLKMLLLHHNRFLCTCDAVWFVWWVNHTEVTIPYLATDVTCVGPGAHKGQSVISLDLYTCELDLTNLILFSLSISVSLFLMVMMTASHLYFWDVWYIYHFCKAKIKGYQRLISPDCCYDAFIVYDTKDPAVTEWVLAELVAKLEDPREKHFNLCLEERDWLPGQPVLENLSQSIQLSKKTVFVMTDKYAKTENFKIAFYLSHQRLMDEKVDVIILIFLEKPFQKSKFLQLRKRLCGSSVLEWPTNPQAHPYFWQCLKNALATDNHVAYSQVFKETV

SMILES	IC50 (human TLR7; [1])	IC50 (human TLR9; [2])	IC50 (human TLR8; [3])	IC50 (human TLR7; [4])	IC50 (human TLR9; [5])	IC50 (human TLR8; [6])	IC50 (human TLR9; TLR9 IC50, HEK-Blue cells, ODN2006 5 nM)	IC50 (human TLR8; TLR8 IC50, HEK-Blue cells, R848 15.9 μM)
Cc1cc(-c2[nH]c3ccc(C4CCN(C5CCOC6CCCC65)CC4)cc3c2C(C)C)cc(C)n1 (stereo not drawn) [Example 458, 2-(2,6-dimethylpyridin-4-yl)-3-isopropyl-5-(1-(octahydrocyclopenta[b]pyran-4-yl)piperidin-4-yl)-1H-indole]	16.6 nM	534 nM	21.3 nM	–	–	–	–	–
CCc1c(-c2ccnc(C)c2)[nH]c2ccc(C3CCN(CC(=O)O)CC3)cc12 [Example 876, 2-(4-(3-ethyl-2-(2-methylpyridin-4-yl)-1H-indol-5-yl)piperidin-1-yl)acetic acid]	–	–	–	958 nM	46700 nM	1940 nM	–	–
Cc1cc(-c2[nH]c3ccc(C4CCN(C(=O)CN(C)C5CCOC5)CC4)cc3c2C(C)C)cc(C)n1 (stereo not drawn) [Example 413, 1-(4-(2-(2,6-dimethylpyridin-4-yl)-3-isopropyl-1H-indol-5-yl)piperidin-1-yl)-2-(methyl(tetrahydrofuran-3-yl)amino)ethan-1-one]	9.6 nM	2500 nM	91.8 nM	–	–	–	–	–
Cc1cc(-c2[nH]c3ccc(C4CCN(C5CCN(C(C)C)CC5)CC4)cc3c2C(C)C)cc(C)n1 [Example 427, 2-(2,6-dimethylpyridin-4-yl)-3-isopropyl-5-(1′-isopropyl-[1,4′-bipiperidin]-4-yl)-1H-indole]	8.3 nM	173 nM	8.1 nM	–	–	–	–	–
Cc1nccc(-c2[nH]c3ccc(C4CCN(CC(=O)N(C)C)CC4)cc3c2C(C)C)c1F [Example 648, 2-(4-(2-(3-fluoro-2-methylpyridin-4-yl)-3-isopropyl-1H-indol-5-yl)piperidin-1-yl)-N,N-dimethylacetamide]	3 nM	2240 nM	3.7 nM	–	–	–	–	–
Cc1cc(-c2[nH]c3ccc(C4CCN(CC(=O)N(C)C)CC4)cc3c2C(C)C)ccn1 [Example 512, 2-(4-(3-isopropyl-2-(2-methylpyridin-4-yl)-1H-indol-5-yl)piperidin-1-yl)-N,N-dimethylacetamide]	13 nM	1060 nM	11.7 nM	–	–	–	–	–
Cc1cc(-c2[nH]c3ccc(C4CCN(C(=O)[C@H]5CCC[C@@]5(C)N)CC4)cc3c2C(C)C)ccn1 [Example 569, ((1S,2R)-2-amino-2-methylcyclopentyl)(4-(3-isopropyl-2-(2-methylpyridin-4-yl)-1H-indol-5-yl)piperidin-1-yl)methanone]	14.4 nM	912 nM	15 nM	–	–	–	–	–
Cc1cc(-c2[nH]c3ccc(C4CCN(CC(=O)N(C)[C@H]5CCOC5)CC4)cc3c2C(C)C)cc(C)n1 [Example 307, (S)-2-(4-(2-(2,6-dimethylpyridin-4-yl)-3-isopropyl-1H-indol-5-yl)piperidin-1-yl)-N-methyl-N-(tetrahydrofuran-3-yl)acetamide]	17.7 nM	3680 nM	87.2 nM	–	–	–	–	–
Cc1cc(-c2[nH]c3ccc(C4CCN(Cc5ncon5)CC4)cc3c2C(C)C)c(F)cn1 [Example 735, 3-((4-(2-(5-fluoro-2-methylpyridin-4-yl)-3-isopropyl-1H-indol-5-yl)piperidin-1-yl)methyl)-1,2,4-oxadiazole]	22.3 nM	> 50000 nM	50 nM	–	–	–	–	–
Cc1cc(-c2[nH]c3ccc(C4CCN(C5CC(C)OC(C)C5)CC4)cc3c2C(C)C)ccn1 (stereo not drawn) [Example 712, 5-(1-(2,6-dimethyltetrahydro-2H-pyran-4-yl)piperidin-4-yl)-3-isopropyl-2-(2-methylpyridin-4-yl)-1H-indole]	36.8 nM	1190 nM	16.4 nM	–	–	–	–	–
Cc1cc(-c2[nH]c3ccc(C4CCN(C(=O)CCC5CCNCC5)CC4)cc3c2C(C)C)ccn1 [Example 568, 1-(4-(3-isopropyl-2-(2-methylpyridin-4-yl)-1H-indol-5-yl)piperidin-1-yl)-3-(piperidin-4-yl)propan-1-one]	11.9 nM	572 nM	13.6 nM	–	–	–	–	–
CCc1c(-c2ccnc(C)c2)[nH]c2ccc(C3CCN(C(C)C)CC3)cc12 [Example 672, 3-ethyl-5-(1-isopropylpiperidin-4-yl)-2-(2-methylpyridin-4-yl)-1H-indole]	252 nM	894 nM	116 nM	–	–	–	–	–
CCc1c(-c2ccnc(C)c2)[nH]c2ccc(C3CCN(C(=O)C4CCCNC4)CC3)cc12 (stereo not drawn) [Example 624, (4-(3-ethyl-2-(2-methylpyridin-4-yl)-1H-indol-5-yl)piperidin-1-yl)(piperidin-3-yl)methanone]	128 nM	311 nM	44.1 nM	–	–	–	–	–
Cc1cc(-c2[nH]c3ccc(C4CCN(C(=O)CN5CCCC5C)CC4)cc3c2C(C)C)cc(C)n1 (stereo not drawn) [Example 366, 1-(4-(2-(2,6-dimethylpyridin-4-yl)-3-isopropyl-1H-indol-5-yl)piperidin-1-yl)-2-(2-methylpyrrolidin-1-yl)ethan-1-one]	3.2 nM	370 nM	10.9 nM	–	–	–	–	–
Cc1cc(-c2[nH]c3ccc(C4CCN(C(=O)CN5CCCC(F)C5)CC4)cc3c2C(C)C)cc(C)n1 (stereo not drawn) [Example 363, 1-(4-(2-(2,6-dimethylpyridin-4-yl)-3-isopropyl-1H-indol-5-yl)piperidin-1-yl)-2-(3-fluoropiperidin-1-yl)ethan-1-one]	8.3 nM	1800 nM	34.2 nM	–	–	–	–	–
Cc1cc(-c2[nH]c3ccc(C4CCN(Cc5ccncc5)CC4)cc3c2C(C)C)cc(C)n1 [Example 435, 2-(2,6-dimethylpyridin-4-yl)-3-isopropyl-5-(1-(pyridin-4-ylmethyl)piperidin-4-yl)-1H-indole]	9.1 nM	609 nM	4.2 nM	–	–	–	–	–
COC[C@@H]1CCCN1C(=O)CN1CCC(c2ccc3[nH]c(-c4cc(C)nc(C)c4)c(C(C)C)c3c2)CC1 [Example 263, (S)-2-(4-(2-(2,6-dimethylpyridin-4-yl)-3-isopropyl-1H-indol-5-yl)piperidin-1-yl)-1-(2-(methoxymethyl)pyrrolidin-1-yl)ethan-1-one]	3.7 nM	279 nM	13.6 nM	–	–	–	–	–
Cc1cc(-c2[nH]c3ccc(C4CCN(Cc5cnc[nH]5)CC4)cc3c2C(C)C)c(C)cn1 [Example 824, 5-(1-((1H-imidazol-5-yl)methyl)piperidin-4-yl)-2-(2,5-dimethylpyridin-4-yl)-3-isopropyl-1H-indole]	–	–	–	13.8 nM	–	–	729 nM	1.2 nM
CCc1c(-c2ccnc(C)c2)[nH]c2ccc(C3CCN(C(=O)C4CCNC4)CC3)cc12 (stereo not drawn) [Example 633, (4-(3-ethyl-2-(2-methylpyridin-4-yl)-1H-indol-5-yl)piperidin-1-yl)(pyrrolidin-3-yl)methanone]	39 nM	311 nM	83.3 nM	–	–	–	–	–
Cc1cc(-c2[nH]c3ccc(C4CCN(CCC(N)=O)CC4)cc3c2C(C)C)cc(C)n1 [Example 314, 3-(4-(2-(2,6-dimethylpyridin-4-yl)-3-isopropyl-1H-indol-5-yl)piperidin-1-yl)propanamide]	1.4 nM	147 nM	3.2 nM	–	–	–	–	–
Cc1cc(-c2[nH]c3ccc(C4CCN(C(=O)CN(C)C5CC5)CC4)cc3c2C(C)C)cc(C)n1 [Example 357, 2-(cyclopropyl(methyl)amino)-1-(4-(2-(2,6-dimethylpyridin-4-yl)-3-isopropyl-1H-indol-5-yl)piperidin-1-yl)ethan-1-one]	13.9 nM	2350 nM	104 nM	–	–	–	–	–
Cc1cc(-c2[nH]c3ccc(C4CCN(C(=O)CN5CCOCC5=O)CC4)cc3c2C(C)C)cc(C)n1 [Example 161, 4-(2-(4-(2-(2,6-dimethylpyridin-4-yl)-3-isopropyl-1H-indol-5-yl)piperidin-1-yl)-2-oxoethyl)morpholin-3-one]	7.9 nM	> 50000 nM	49.4 nM	–	–	–	–	–
Cc1cc(-c2[nH]c3ccc(C4CCN(CCC#N)CC4)cc3c2C(C)C)c(F)cn1 [Example 656, 3-(4-(2-(5-fluoro-2-methylpyridin-4-yl)-3-isopropyl-1H-indol-5-yl)piperidin-1-yl)propanenitrile]	9.3 nM	> 50000 nM	1.9 nM	–	–	–	–	–
Cc1cc(-c2[nH]c3ccc(C4CCN(C5CCN(C(C)C)CC5)CC4)cc3c2C)ccn1 [Example 811, 5-(1′-isopropyl-[1,4′-bipiperidin]-4-yl)-3-methyl-2-(2-methylpyridin-4-yl)-1H-indole]	–	–	–	117 nM	23 nM	47.2 nM	–	–
Cc1cc(-c2[nH]c3ccc(C4CCN(C(=O)CN5C[C@@H](O)CC5=O)CC4)cc3c2C(C)C)cc(C)n1 [Example 169, (S)-1-(2-(4-(2-(2,6-dimethylpyridin-4-yl)-3-isopropyl-1H-indol-5-yl)piperidin-1-yl)-2-oxoethyl)-4-hydroxypyrrolidin-2-one]	11.7 nM	> 50000 nM	73.7 nM	–	–	–	–	–
Cc1cc(-c2[nH]c3ccc(C4CCN(S(=O)(=O)Cc5ccccc5)CC4)cc3c2C(C)C)ccn1 [Example 556, 5-(1-(benzylsulfonyl)piperidin-4-yl)-3-isopropyl-2-(2-methylpyridin-4-yl)-1H-indole]	220 nM	> 50000 nM	731 nM	–	–	–	–	–
Cc1cc(-c2[nH]c3cc(F)c(C4CCN(C5CC(C)OC(C)C5)CC4)cc3c2C(C)C)cc(C)n1 (stereo not drawn) [Example 833, 2-(2,6-dimethylpyridin-4-yl)-5-(1-(2,6-dimethyltetrahydro-2H-pyran-4-yl)piperidin-4-yl)-6-fluoro-3-isopropyl-1H-indole]	–	–	–	9.4 nM	556 nM	29.6 nM	–	–
